We go through 6 compounds from patent publication US20070149508A1, “Six membered heteroaromatic inhibitors targeting resistant kinase mutations” (TargeGen, Inc., priority 2005, published 2007).

SMILES strings stand for the structures.

One assay concerns the target Abl kinase (Homo sapiens, UniProt P00519). The assay can be described thus: biochemical. Conditions: Abl IC50 (nM), Abl kinase (Invitrogen, 20 ng/well), Abltide 100 μM, ATP 500 nM, 37° C. for 60 minutes, top concentration 10 uM.
Another assay has as its target T1, Abl (T315I) (Homo sapiens, UniProt P00519, T315I).
T1 construct: purchased Upstate
Put plainly: Abl (T315I) Kinase Assay (KinaseGlo luminescent detection of residual ATP). The assay is classed as biochemical. Particulars: Abl (T315I) IC50 (nM), Abl (T315I) (Upstate, 17 ng/well), Abltide 100 uM, ATP 500 nM, 60 minutes at 37° C. As to the method: The assay was performed similarly to the Abl kinase assay. Abl (T315I) (Upstate, 17 ng/well); Abltide substrate (100 uM) and ATP (500 nM) comprised the reaction mixture. Compound was similarly diluted, and the reaction plate was incubated for 60 minutes at 37° C.
Background: Kinase-Glo measures the ATP left after a reaction by luminescence.

Experimental for Abl kinase: Kinase activity was assessed using luminescent detection (KinaseGlo, Promega) of residual ATP concentration in reaction mixtures containing optimized levels of kinase, substrate, ATP, compound and appropriate buffers. Kinase, substrate and ATP concentrations were determined per the supplier's recommendations. Briefly, this involved running concentration curves to select for optimal signal.
The reaction mixture (50 ul/well) consisted of Abl kinase (Invitrogen, 20 ng/well); Abltide peptide substrate (Upstate, 100 μM) and ATP (500 nM). Each compound was evaluated at a top concentration of 10 uM with 1:3 dilution steps, 10 dilution steps total. Compound was diluted into DMSO and transferred to the reaction plate, resulting in a final DMSO concentration of 2%. This amount of DMSO was determined not to interfere with the enzyme. The reaction was conducted at 37° C. for 60 minutes. The degree of inhibition was assessed using IC50 determinations, which were obtained using GraphPad Prism4.

Usually IC50 stands for the midpoint of a concentration-inhibition curve. As to `NC(=O)CN(C1CCNCC1)S(=O)(=O)c1ccc(Nc2ncc(/C=C/c3ccc4nc(N)sc4c3)cn2)cc1` [[4-({5-[(E)-2-(2-amino-1,3-benzothiazol-6-yl)vinyl]pyrimidin-yl}amino)phenyl]sulfonyl}-N2-piperidin-4-ylglycinamide], the IC50 stood at 113 nM against Abl kinase and 96 nM on Abl (T315I).

For `CN(C)CCN(C1CCNCC1)S(=O)(=O)c1ccc(Nc2ncc(/C=C/c3cccc4[nH]ncc34)cn2)cc1` [N-[2-(dimethylamino)ethyl]-4-({5-[(E)-2-(1H-indazol-4-yl)vinyl]pyrimidin-2-yl}amino)-N-piperidin-4-ylbenzenesulfonamide], the IC50 against Abl kinase is 10 nM; against Abl (T315I) it was 113 nM.

Consider `O=S(=O)(c1ccc(Nc2ncc(/C=C/c3cccc(O)c3)cn2)c(C(F)(F)F)c1)N1CCNCC1` [3-(2-{2-[4-(Piperazine-1-sulfonyl)-2-trifluoromethyl-phenylamino]-pyrimidin-5-yl}-vinyl)-phenol], for which the IC50 against Abl kinase is 44700 nM; against Abl (T315I), 1.53e+06 nM.

Consider `Cc1cc(Nc2ncc(/C=C/c3cccc(O)c3)cn2)cc(C)c1S(=O)(=O)N(C)CCN1CCCC1` [4-{5-[2-(3-Hydroxy-phenyl)-vinyl]-pyrimidin-2-ylamino}-2,6,N-trimethyl-N-(2-pyrrolidin-1-yl-ethyl)-benzenesulfonamide], for which the IC50 against Abl kinase was 16 nM; on Abl (T315I), 248 nM.

In the case of `Cc1cc(S(=O)(=O)N2CCNCC2)ccc1Nc1ncc(/C=C/c2cccc(O)c2)cn1` [3-(2-{2-[2-Methyl-4-(piperazine-1-sulfonyl)-phenylamino]-pyrimidin-5-yl}-vinyl)-phenol], the IC50 on Abl kinase came out at 3450 nM; on Abl (T315I) it was 10400 nM.

Regarding `O=S(=O)(c1ccc(Nc2ncc(/C=C/c3cccc4[nH]ncc34)cn2)cc1NCCO)N1CCNCC1` [2-{[5-({5-[(E)-2-(1H-indazol-4-yl)vinyl]pyrimidin-2-yl}amino)-2-(piperazin-1-ylsulfonyl)phenyl]amino}ethanol], the IC50 at Abl kinase amounted to 6.5 nM; on Abl (T315I) it was 233 nM.
